Counter-ions that a name gives are not always drawn.
Target: T1, human Chk1 (GST-Chk1) (Homo sapiens, UniProt O14757)
T1 construct: made in house; host or cells: insect cells (baculovirus, Bac-to-Bac)
T1 sequence (O14757 1-476): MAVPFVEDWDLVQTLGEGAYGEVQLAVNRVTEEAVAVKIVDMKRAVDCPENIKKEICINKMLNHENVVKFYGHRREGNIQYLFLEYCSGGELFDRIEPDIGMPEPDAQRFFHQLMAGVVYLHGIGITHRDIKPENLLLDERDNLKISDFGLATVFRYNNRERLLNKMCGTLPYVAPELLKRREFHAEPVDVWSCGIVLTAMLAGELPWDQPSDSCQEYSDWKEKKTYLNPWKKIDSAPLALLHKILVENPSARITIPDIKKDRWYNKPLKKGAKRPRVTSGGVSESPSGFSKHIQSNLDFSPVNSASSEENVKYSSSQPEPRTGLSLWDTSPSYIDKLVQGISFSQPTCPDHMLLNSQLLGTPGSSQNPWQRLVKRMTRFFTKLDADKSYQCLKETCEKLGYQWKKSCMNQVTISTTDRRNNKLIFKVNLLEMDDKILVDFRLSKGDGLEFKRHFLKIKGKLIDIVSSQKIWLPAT
Experiment: Chk1 FlashPlate kinase assay
Type: biochemical
Conditions: 8.7 nM GST-Chk1, 1 uM ATP, 33P incorporation into peptide substrate
Method: Recombinant human Chk1 was expressed as a fusion protein with glutathione S-transferase at the amino-terminus (GST-Chk1) using standard baculovirus vectors and (Bac-to-Bac®) insect cell expression system purchased from GIBCO™ Invitrogen. Recombinant protein expressed in insect cells was purified using glutathione sepharose (Amersham Biotech) using standard procedures described by the manufacturer.
Chk1 FlashPlate® Kinase Assay:
Assays (25 μL) contained 8.7 nM GST-Chk1, 10 mM MES, 0.1 mM ethylene glycol-bis(β-aminoethylether)-N,N,N′,N′-tetracetic acid (EGTA, pH 8.0), 2 mM DTT, 0.05% Tween 20, 3 uM peptide substrate (Biotin-ILSRRPSYRKILND-free acid) (SEQ ID NO: 1), 1 uM ATP, 0.4 uCi ^33P-γ-ATP (NEN), 4% DMSO. Reactions were incubated for 30 minutes at room temperature, terminated with 50 μL of 50 mM EDTA and 90 μL were transferred to streptavidin-coated FlashPlates® (NEN) and incubated for 1 hour at room temperature. Plates were washed with phosphate buffered salaine containing 0.01% Tween-20 and 10 mM sodium pyrophosphate. Plates were dried, sealed with Topseal™ (NEN) and amount of ^33P incorporated into the peptide substate measure using a Packard Topcount® NXT™ scintillation counter with standard settings.

SMILES | IC50 [µM]
Cc1[nH]nc2c1c(=O)n(CCCNC(=O)c1ccc(Cl)cc1)c1ccccc21 [Example 60, 4-Chloro-N-[3-(3-methyl-4-oxo-2,4-dihydro-pyrazolo[4,3-c]quinolin-5-yl)-propyl]-benzamide] | < 1
Cc1[nH]nc2c1c(=O)n(CCCNC(=O)CCCc1ccccc1)c1ccccc21 [Example 81, N-[3-(3-Methyl-4-oxo-2,4-dihydro-pyrazolo[4,3-c]quinolin-5-yl)-propyl]-4-phenyl-butyramide] | < 1
Cc1[nH]nc2c1c(=O)n(CCCNC(=O)c1ccc(Cl)cc1)c1cc(Cl)ccc21 [Example 75, 4-Chloro-N-[3-(7-chloro-3-methyl-4-oxo-2,4-dihydro-pyrazolo[4,3-c]quinolin-5-yl)-propyl]-benzamide] | < 1
Cc1n[nH]c2c1c(=O)n(CC(N)Cc1ccccc1)c1ccccc21 (centres unmarked) [Example 23, 5-(2-Amino-3-phenyl-propyl)-3-methyl-1,5-dihydro-pyrazolo[4,3-c]quinolin-4-one] | > 20
Cc1n[nH]c2c1c(=O)n(CCCCNC(=O)Nc1ccccc1)c1ccc(Br)cc21 [Example 67, 1-[4-(8-Bromo-3-methyl-4-oxo-1,4-dihydro-pyrazolo[4,3-c]quinolin-5-yl)-butyl]-3-phenyl-urea] | < 1
Cc1n[nH]c2c1c(=O)n(CCNC(=O)OC(C)(C)C)c1ccccc21 [Example 1, [2-(3-Methyl-4-oxo-1,4-dihydro-pyrazolo[4,3-c]quinolin-5-yl)-ethyl]-carbamic acid tert-butyl ester] | 1 to 20
Cc1n[nH]c2c1c(=O)n(CCCC(=O)O)c1ccc(Br)cc21 [Example 19, 4-(8-Bromo-3-methyl-4-oxo-1,4-dihydro-pyrazolo[4,3-c]quinolin-5-yl)-butyric acid] | < 1
Cc1n[nH]c2c1c(=O)n(CCN(C)C)c1ccccc21 [Example 7, 5-(2-Dimethylamino-ethyl)-3-methyl-1,5-dihydro-pyrazolo[4,3-c]quinolin-4-one hydrochloride] | 1 to 20
Cc1n[nH]c2c1c(=O)n(CC1CCCN(C(=O)OC(C)(C)C)C1)c1ccc(Br)cc21 (centres unmarked) [Example 30, 3-(8-Bromo-3-methyl-4-oxo-1,4-dihydro-pyrazolo[4,3-c]quinolin-5-ylmethyl)-piperidine-1-carboxylic acid tert-butyl ester] | 1 to 20
Cc1[nH]nc2c1c(=O)n(CCCNC(=O)C(Cc1ccc(OC(C)(C)C)cc1)NC(=O)OC(C)(C)C)c1ccccc21 (centres unmarked) [Example 98, {2-(4-tert-Butoxy-phenyl)-1-[3-(3-methyl-4-oxo-2,4-dihydro-pyrazolo[4,3-c]quinolin-5-yl)-propylcarbamoyl]-ethyl}-carbamic acid tert-butyl ester] | 1 to 20
Cc1[nH]nc2c1c(=O)n(CCCN(C)C)c1ccc(Br)cc21 [Example 18, 8-Bromo-5-(3-dimethylamino-propyl)-3-methyl-2,5-dihydro-pyrazolo[4,3-c]quinolin-4-one] | < 1
Cc1[nH]nc2c1c(=O)n(CCCNC(=O)CCCNC(=O)OC(C)(C)C)c1ccccc21 [Example 100, {3-[3-(3-Methyl-4-oxo-2,4-dihydro-pyrazolo[4,3-c]quinolin-5-yl)-propylcarbamoyl]-propyl}-carbamic acid tert-butyl ester] | 1 to 20
Cc1[nH]nc2c1c(=O)n(CCCNC(=O)CC(C)C)c1ccccc21 [Example 35, 3-Methyl-N-[3-(3-methyl-4-oxo-2,4-dihydro-pyrazolo[4,3-c]quinolin-5-yl)-propyl]-butyramide] | < 1
Cc1[nH]nc2c1c(=O)n(CCCNC(=O)CCC(NC(=O)OC(C)(C)C)C(=O)OC(C)(C)C)c1ccccc21 (centres unmarked) [Example 99, 2-tert-Butoxycarbonylamino-4-[3-(3-methyl-4-oxo-2,4-dihydro-pyrazolo[4,3-c]quinolin-5-yl)-propylcarbamoyl]-butyric acid tert-butyl ester] | 1 to 20
Cc1n[nH]c2c1c(=O)n(CCNC(=O)OC(C)(C)C)c1ccc(Br)cc21 [Example 52, [2-(8-Bromo-3-methyl-4-oxo-1,4-dihydro-pyrazolo[4,3-c]quinolin-5-yl)-ethyl]-carbamic acid tert-butyl ester] | < 1
Cc1[nH]nc2c1c(=O)n(CCCNC(=O)C(Cc1ccc(Cl)cc1)NC(=O)OC(C)(C)C)c1ccccc21 (centres unmarked) [Example 96, {2-(4-Chloro-phenyl)-1-[3-(3-methyl-4-oxo-2,4-dihydro-pyrazolo[4,3-c]quinolin-5-yl)-propylcarbamoyl]-ethyl}-carbamic acid tert-butyl ester] | > 20
Cc1[nH]nc2c1c(=O)n(CCCNC(=O)c1ccc(C#N)cc1)c1ccccc21 [Example 68, 4-Cyano-N-[3-(3-methyl4-oxo-2,4-dihydro-pyrazolo[4,3-c]quinolin-5-yl)-propyl]-benzamide] | < 1

Now from value to compound:

IC50 [µM] | SMILES
< 1 | Cc1[nH]nc2c1c(=O)n(CCCNC(=O)C(N)CCCCN)c1ccccc21 (centres unmarked) [Example 123, 2,6-Diamino-hexanoic acid [3-(3-methyl-4-oxo-2,4-dihydro-pyrazolo[4,3-c]quinolin-5-yl)-propyl]-amide]
< 1 | Cc1ccc2c(c1)c1n[nH]c(C)c1c(=O)n2CCCNC(=O)OC(C)(C)C [Example 44, [3-(3,8-Dimethyl-4-oxo-2,4-dihydro-pyrazolo[4,3-c]quinolin-5-yl)-propyl]-carbamic acid tert-butyl ester]
< 1 | Cc1n[nH]c2c1c(=O)n(CCNCc1ccccc1)c1ccccc21 [Example 4, 5-(2-Benzylamino-ethyl)-3-methyl-1,5-dihydro-pyrazolo[4,3-c]quinolin-4-one]
< 1 | Cc1[nH]nc2c1c(=O)n(CCCNC(=O)c1cccnc1)c1ccccc21 [Example 82, N-[3-(3-Methyl-4-oxo-2,4-dihydro-pyrazolo[4,3-c]quinolin-5-yl)-propyl]-nicotinamide]
< 1 | Cc1[nH]nc2c1c(=O)n(CCCN)c1ccc(O)cc21 [Example 59, 5-(3-Amino-propyl)-8-hydroxy-3-methyl-2,5-dihydro-pyrazolo[4,3-c]quinolin-4-one]
< 1 | Cc1[nH]nc2c1c(=O)n(CCCNC(=O)c1ccc([N+](=O)[O-])cc1)c1ccccc21 [Example 61, N-[3-(3-Methyl-4-oxo-2,4-dihydro-pyrazolo[4,3-c]quinolin-5-yl)-propyl]-4-nitro-benzamide]
< 1 | Cc1[nH]nc2c1c(=O)n(CCCNC(=O)c1ccc(F)cc1)c1ccccc21 [Example 64, 4-Fluoro-N-[3-(3-methyl-4-oxo-2,4-dihydro-pyrazolo[4,3-c]quinolin-5-yl)-propyl]-benzamide]
1 to 20 | Cc1[nH]nc2c1c(=O)n(CCCNC(=O)CNC(=O)OC(C)(C)C)c1ccccc21 [Example 102, {[3-(3-Methyl-4-oxo-2,4-dihydro-pyrazolo[4,3-c]quinolin-5-yl)-propylcarbamoyl]-methyl}-carbamic acid tert-butyl ester]
< 1 | Cc1n[nH]c2c1c(=O)n(CCCNC(=O)c1ccccc1)c1ccccc21 [Example 73, N-[3-(3-Methyl-4-oxo-1,4-dihydro-pyrazolo[4,3-c]quinolin-5-yl)-propyl]-benzamide]
< 1 | Cc1n[nH]c2c1c(=O)n(CC1CCCNC1)c1ccc(Br)cc21 (centres unmarked) [Example 48, 8-Bromo-3-methyl-5-piperidin-3-ylmethyl-1,5-dihydro-pyrazolo [4,3-c]quinolin-4-one]
1 to 20 | Cc1n[nH]c2c1c(=O)n(Cc1cccnc1)c1ccccc21 [Example 2, 3-Methyl-5-pyridin-3-ylmethyl-1,5-dihydro-pyrazolo[4,3-c]quinolin-4-one]
< 1 | Cc1n[nH]c2c1c(=O)n(CCCO)c1ccccc21 [Example 14, 5-(3-Hydroxy-propyl)-3-methyl-1,5-dihydro-pyrazolo[4,3-c]quinolin-4-one]
< 1 | Cc1n[nH]c2c1c(=O)n(CCN)c1ccc(Br)cc21 [Example 53, 5-(2-Amino-ethyl)-8-bromo-3-methyl-1,5-dihydro-pyrazolo[4,3-c]quinolin4-one]
1 to 20 | Cc1n[nH]c2c1c(=O)n(CCNC(=O)Nc1ccccc1)c1ccccc21 [Example 87]
< 1 | Cc1n[nH]c2c1c(=O)n(CC(C)CNC(=O)OC(C)(C)C)c1ccc(Br)cc21 (centres unmarked) [Example 41, [3-(8-Bromo-3-methyl-4-oxo-1,4-dihydro-pyrazolo[4,3-c]quinolin-5-yl)-2-methyl-propyl]-carbamic acid tert-butyl ester]
